The NIST ThermoML archive (doi:10.1021/je200068x)
± gives the expanded uncertainty stated by the source.

Details: for surface tension liquid-gas: Drop weight; for mass density: 101.33 kPa, Liquid

C[n+]1ccn(CCCN)c1.F[B-](F)(F)F [1-(3-aminopropyl)-3-methyl-1H-imidazolium tetrafluoroborate]
Details | mass density [kg/m3] | surface tension liquid-gas [mN/m]
293.15 K | 1358.01 ± 1.8 | 47.2 ± 0.5
298.15 K | 1354.6 ± 1.7 | 47.1 ± 0.5
303.15 K | 1349.29 ± 1.7 | 46.4 ± 0.5
308.15 K | 1345.68 ± 1.7 | 46.2 ± 0.5
313.15 K | 1343.18 ± 1.7 | 46.1 ± 0.5
318.15 K | 1336.97 ± 1.7 | 45.4 ± 0.5
323.15 K | 1333.57 ± 1.7 | 45.2 ± 0.5
328.15 K | 1328.96 ± 1.6 | 44.8 ± 0.5
333.15 K | 1325.35 ± 1.6 | 44.6 ± 0.5
338.15 K | 1321.05 ± 1.6 | 44.1 ± 0.5
343.15 K | 1317.25 ± 1.6 | 43.8 ± 0.5
348.15 K | 1313.04 ± 1.6 | 43.4 ± 0.5
353.15 K | 1309.44 ± 1.6 | 43.1 ± 0.5

Cn1cc[n+](CCN)c1.F[B-](F)(F)F [3-(2-aminoethyl)-1-methyl-1H-imidazolium tetrafluoroborate]
Details | mass density [kg/m3] | surface tension liquid-gas [mN/m]
293.15 K | 1427.12 ± 2 | 53.8 ± 0.5
298.15 K | 1422.31 ± 2 | 53.5 ± 0.5
303.15 K | 1418.96 ± 2 | 53.2 ± 0.5
308.15 K | 1413.23 ± 2 | 52.4 ± 0.5
313.15 K | 1409.18 ± 1.9 | 52 ± 0.5
318.15 K | 1404.69 ± 1.9 | 51.5 ± 0.5
323.15 K | 1401.78 ± 1.9 | 51.3 ± 0.5
328.15 K | 1395.42 ± 1.9 | 50.8 ± 0.5
333.15 K | 1391.77 ± 1.9 | 50.3 ± 0.5
338.15 K | 1388.54 ± 1.9 | 50.2 ± 0.5
343.15 K | 1384.79 ± 1.9 | 49.8 ± 0.5
348.15 K | 1380.94 ± 1.9 | 49.4 ± 0.5
353.15 K | 1375.11 ± 1.8 | 48.8 ± 0.5
